Values quoted from earlier work in patent US20140364417A1, “METHOD OF TREATING ATRIAL FIBRILLATION” (Gilead Sciences, Inc., priority 2013, published 2014).

Experiments:
[1] = test system: atrial and ventricular myocardium; conditions: cited from earlier work
[2] = test system: AV node and ventricular Purkinje system; conditions: ivabradine 0.2 mg/kg, i.v., cited from earlier work

| SMILES | dominant frequency of AF ([1]; Kumar et al. 2009) | APD in ventricular myocardium ([1]; clinically relevant concentrations (5 and 10 μM)) | duration of the action potential (APD90) in atria ([1]; published studies) | heart rate ([2]; Thollon 1997, Camm and Lau 2003) | conductivity, refractoriness or repolarization duration of AV node and ventricular Purkinje system [2] |
| --- | --- | --- | --- | --- | --- |
| COc1ccccc1OCC(O)CN1CCN(CC(=O)Nc2c(C)cccc2C)CC1 (racemic) [ranolazine, (±)-N-(2,6-dimethylphenyl)-4-[2-hydroxy-3-(2-methoxyphenoxy)-propyl]-1-piperazineacetamide] | capable of reducing | minimal or no effect | prolongs | – | – |
| COc1cc2c(cc1OC)CC(=O)N(CCCN(C)C[C@H]1Cc3cc(OC)c(OC)cc31)CC2 [ivabradine, 3-{3-[{[(7S)-3,4-dimethoxybicyclo[4.2.0]octa-1,3,5-trien-7-yl]methyll}-(methyl)amino]propyl}-7,8-dimethoxy-1,3,4,5-tetrahydro-2H-3-benzapenin-2-one] | – | – | – | lowers heart rate | without causing changes |
